How the values were obtained:
[1] = test system: blood triglyceride levels; assay: Blood triglyceride levels in Fisher rats after 7 days of twice daily s.c. injection; format: in vivo; settings: female Fisher rats, blood on day 8, control 1.43±0.13
Procedure: 1. Nine 10 week old female Fisher rats were treated with the sulfated mannopentaose phosphate or saline over a 7 day period as follows. On […] the rats were weighed and placed into three groups of three rats based on weight. On every subsequent morning their weights were recorded. Each morning beginning on day 1 at approximately 8.00 AM and evening at approximately 8.00 PM the rats were injected in the following manner. The control group received sterile normal saline solution 100 μl s.c. One treatment group received the sulfated mannopentaose phosphate at a dose of 10 mg/kg s.c. in an injection volume of 100 μl of sterile saline solution. Thus, each rat in this group received a total daily dose of 20 mg/kg. Animals in the second treatment group received the sulfated mannopentaose phosphate at a dose of 50 mg/kg s.c. in an injection volume of 100 μl of sterile saline solution. Thus, each rat in this group received a total daily dose of 100 mg/kg. This injection routine was repeated for a total of 7 days.
On the morning of day 8 of the experiment, the rats were anaesthetised and blood was taken for triglyceride analysis. Triglyceride levels were determined using a commercially available assay kit (Sigma, Triglyceride—GPO-Trinder). […]

[2] = test system: serum triglyceride levels; assay: Time course of serum triglyceride levels in mice after a single s.c. dose; format: in vivo, CBA/h female mice; settings: single 50 mg/kg s.c.
Procedure: FIG. 1. Time course of the effect of a single s.c. dose (50 mg/kg) of sulfated mannopentaose phosphate (PI-88) on serum triglyceride levels, as measured by the Sigma triglyceride assay. Data presented as group means±SEM (n=4).
Thus, 32 CBA/h female mice 8-10 weeks old were weighed and placed into eight groups, containing four mice each based on weight. The control group was injected with sterile normal saline solution 100 μl s.c. All the treatment groups were injected with sulfated mannopentaose at a dose of 50 mg/kg s.c. in a volume of 100 μl of sterile normal saline solution. At 0.5, 1, 2, 3, 6, 24 and 48 hours following injection mice were anaesthetised and blood was collected via cardiac puncture and allowed to clot and serum triglyceride levels were measured using a commercially available kit (Sigma, Triglyceride—GPO-Trinder).

[3] = test system: serum triglyceride levels; assay: Serum triglyceride levels in mice 2 hours after a single s.c. dose (dose response); format: in vivo, CBA/h female mice; settings: single s.c. doses of 10 mg/kg and above (10, 20, 50, 100 mg/kg), 2 hours after injection
Procedure: FIG. 2. Effect of different single doses of sulfated mannopentaose phosphate (PI-88) (10-100 mg/kg) on serum triglyceride levels 2 hours following s.c. injection. Data presented as group means±SEM (n=4).
Thus, 20 CBA/h female mice 8-10 weeks old were weighed and placed into five groups, containing four mice each based on weight. The control group was injected with sterile normal saline solution 100 μl s.c. The respective treatment groups were injected with sulfated mannopentaose phosphate at doses of 10, 20, 50 or 100 mg/kg s.c. in a volume of 100 μl of sterile normal saline solution. Two hours following injection, mice were anaesthetised and blood was collected via cardiac puncture and allowed to clot and serum triglyceride levels were measured using a commercially available kit (Sigma, Triglyceride—GPO-Trinder).

“sulfated mannopentaose phosphate [PI-88 (15 SO4/molecule)]” was tested. Which blood triglyceride levels ([1]; 20 mg/kg/day s.c. (10 mg/kg twice daily)) did it give?
The blood triglyceride levels was 0.3 ± 0.12 mmol/L.

And the blood triglyceride levels ([1]; 100 mg/kg/day s.c. (50 mg/kg twice daily))?
Its blood triglyceride levels is 0.1 ± 0.0 mmol/L.

And the “time to significant reduction in blood triglyceride levels” value [2]?
Its value is at most 0.5 h.

And the “time until which triglyceride levels continued to fall (maximum lowering)” value [2]?
Its value is 2 h.

And the “triglyceride levels versus controls, in words” value ([2]; 6 hours after injection)?
The value was “significantly lower than controls”.

What about the “triglyceride levels versus controls, in words” value ([2]; 24 hour time point) of the same substance?
The value was “returning to normal”.

And the “reduction in blood triglyceride levels, in words” value [3]?
Its value is “significant reduction”.

Reference: patent US6670339B1, “Use of sulfated oligosaccharides in lowering blood triglyceride levels” (The Australian National University, priority 1997, dated 2003)
